In ChEMBL document CHEMBL5726907, “FXR (NR1H4) modulating compounds” (2018):

Biological target: T1, Bile acid receptor (Homo sapiens, UniProt Q96RI1)
T1 sequence (Q96RI1 whole entry): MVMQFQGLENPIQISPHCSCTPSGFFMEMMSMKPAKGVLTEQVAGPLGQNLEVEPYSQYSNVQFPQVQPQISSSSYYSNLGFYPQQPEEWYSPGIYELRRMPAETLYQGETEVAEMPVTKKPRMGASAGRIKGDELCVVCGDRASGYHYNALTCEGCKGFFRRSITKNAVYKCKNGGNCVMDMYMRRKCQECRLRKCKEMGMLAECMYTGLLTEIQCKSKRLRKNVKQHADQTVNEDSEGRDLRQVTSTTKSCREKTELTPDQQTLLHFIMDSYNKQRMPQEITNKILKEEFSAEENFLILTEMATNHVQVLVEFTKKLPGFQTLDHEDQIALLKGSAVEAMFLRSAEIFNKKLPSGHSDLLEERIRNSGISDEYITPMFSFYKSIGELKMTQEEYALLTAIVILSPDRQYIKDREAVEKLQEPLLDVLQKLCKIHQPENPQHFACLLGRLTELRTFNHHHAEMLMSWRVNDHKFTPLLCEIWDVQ
Test: FRET Activity Assay: The human FXRalpha LBD was expressed in E. coli strain BL21(DE3) as an N-terminally GST tagged fusion protein. The DNA encoding the FXR ligand binding domain was cloned into vector pDEST15 (Invitrogen). Expression was under control of an IPTG inducible T7 promoter. The amino acid boundaries of the ligand binding domain were amino acids 187-472 of Database entry NM_005123 (RefSeq). Expression and purification of the FXR-LBD: An overnight preculture of a transformed E. coli strain was diluted 1:20 in LB-Ampicillin medium and grown at 30° C. to an optical density of =0.4-0.6. Gene expression was then induced by addition of 0.5 mM IPTG. Cells were incubated an additional 6 h at 30° C., 180 rpm. Cells were collected by centrifugation (7000×g, 7 min, rt). Per liter of original cell culture, cells were resuspended in 10 mL lysis buffer (50 mM Glucose, 50 mM Tris pH 7.9, 1 mM EDTA and 4 mg/mL lysozyme) and left on ice for 30 min. Cells were then subjected to sonication and cell debris removed via centrifugation (22000×g, 30 min, 4° C.). Per 10 mL of supernatant 0.5 mL prewashed Glutathione 4B sepharose slurry (Qiagen) was added and the suspension kept slowly rotating for 1 h at 4° C. Glutathione 4B sepharose beads were pelleted by centrifugation (2000× g, 15 sec, 4° C.) and washed twice in wash buffer (25 mM Tris, 50 mM KCl, 4 mM MgCl2 and IM NaCl). […]

IC50 [nM] | SMILES
19 | O=C(O)c1cc(F)c2nc(C3(O)C4COCC3CC(OCc3c(-c5c(Cl)cccc5Cl)noc3C3CC3)C4)sc2c1 (configuration not stated)
30 | O=C(O)c1ccc2nc(C3(O)C4COCC3CC(OCc3c(-c5c(Cl)cccc5Cl)noc3C3CC3)C4)sc2c1 (configuration not stated)
